Among the data in patent US20110217300A1, “Quinazolinone Compounds and Methods of Use Thereof” (priority 2007, published 2011) are IC50 and GI50 values, retold here.

Read-outs that look alike come from different tables or passages of the source.

One assay concerns the target T1, HsEg5 (Homo sapiens, UniProt P52732).
T1 sequence (P52732 18-359 limits assumed): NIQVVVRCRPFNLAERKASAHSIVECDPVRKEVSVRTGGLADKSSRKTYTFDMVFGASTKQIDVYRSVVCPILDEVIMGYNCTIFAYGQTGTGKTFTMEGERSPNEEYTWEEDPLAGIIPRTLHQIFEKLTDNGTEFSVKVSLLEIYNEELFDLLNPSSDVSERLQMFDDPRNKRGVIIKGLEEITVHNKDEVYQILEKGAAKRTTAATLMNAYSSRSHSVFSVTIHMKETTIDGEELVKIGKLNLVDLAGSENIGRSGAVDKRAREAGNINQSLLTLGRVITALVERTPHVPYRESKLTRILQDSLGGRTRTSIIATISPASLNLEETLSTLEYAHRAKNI
As to the kind of experiment: Fluorescence detection of HsEg5 ATPase activity (ADP Quest, automated). Type of assay: biochemical. An outline of the steps:
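Microtubule-activated HsEg5 motor fragment (10 nM, 500 nM MTs) preincubated 10 min with compound, then 20 μM ATP for 10 min at room temperature in Pipes pH 7.0, MgCl2, paclitaxel, 0.3% DMSO. ADP detected via coupled-enzyme resorufin fluorescence; IC50 over 100 μM–5 nM.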

In the next assay the test system is NCI-H460. The assay can be described thus: MTS cell viability assay. Particulars: Homo sapiens, NCI-H460, 72 h. Type of assay: cell-based, human. An outline of the steps:
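72 h compound treatment, 0.33% DMSO; […] PMS 7.67 mg/L, 4 h; 1.4% SDS; […]. Cells 100-5000/well, 37° C., 5% CO2. Output GI50, ≥2 replicates.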
A general note: Formazan colour is commonly taken as a measure of viable cells.

For the next assay, the system named is A549. The assay can be described thus: MTS cell viability assay. Type of assay: cell-based. The following applies: Homo sapiens, A549 non small cell lung, 72 hours, read-out: MTS NCI A549 GI50. In outline: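 A549 and a second human cancer line seeded in DMEM/10% FBS, allowed 16–24 h to attach, then exposed 72 h at 37 °C, 5% CO2 to serially diluted compound (final DMSO 0.33%). Viability measured by MTS.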

Setting [1] is: read-out: MTS NCI H460 GI50, NCI-H460 non small cell lung, 72 hours.

What is called IC50 is the concentration that gives 50% inhibition. A low value points to higher potency. In general, GI50 refers to the concentration at which growth is held to half of that of the control. Consider `CCC(c1nc2cc(Cl)ccc2c(=O)n1Nc1ccccc1)N(CCCN)C(=O)c1ccc(C)c(F)c1F` (stereo not drawn) [Compound 21, N-(3-Aminopropyl)-N-[1-(3-anilino-7-chloro-4-oxo-3,4-dihydroquinazolin-2-yl)propyl]-2,3-difluoro-4-methylbenzamide], for which half-maximal inhibition at HsEg5 (IC50) required 1.25 µM. Besides, the GI50 was 1.08 µM in the assay with NCI-H460 (setting [1]) and 1.93 µM with A549 (A549, 72 h).

As to `CC(C)C(c1nc2cc(Cl)ccc2c(=O)n1Nc1ccccc1)N(CCCN)C(=O)c1ccc2ccccc2n1` (stereo not drawn) [Compound 47, N-(3-Aminopropyl)-N-[1-(3-anilino-7-chloro-4-oxo-3,4-dihydroquinazolin-2-yl)-2-methylpropyl]quinoline-2-carboxamide], the IC50 on HsEg5 turned out to be 3.23 µM. The GI50 is 2.7 µM with NCI-H460 (read-out: MTS NCI H460 GI50) and 4.09 µM in the assay with A549.

At HsEg5, `CCC(c1nc2cc(Cl)ccc2c(=O)n1Nc1ccccc1)N(CCCN)C(=O)c1ccc(Cl)c(Cl)c1` (stereo not drawn) [Compound 6, N-(3-Aminopropyl)-N-[1-(3-anilino-7-chloro-4-oxo-3,4-dihydroquinazolin-2-yl)propyl]-3,4-dichlorobenzamide] came in with an IC50 of 0.418 µM. For the same compound, the GI50 came out at 1.16 µM in the assay with NCI-H460 (setting [1]) and 1.87 µM in the assay with A549 (A549, 72 h).

As to `CCC(c1nc2cc(Cl)ccc2c(=O)n1Nc1ccccc1)N(CCCN)C(=O)c1ccc([N+](=O)[O-])cc1` (stereo not drawn) [Compound 5, N-(3-Aminopropyl)-N-[1-(3-anilino-7-chloro-4-oxo-3,4-dihydroquinazolin-2-yl)propyl]-4-nitrobenzamide], the IC50 at HsEg5 was found to be 1.05 µM. In addition, the 50% growth inhibitory concentration (GI50) in the assay with NCI-H460 (read-out: MTS NCI H460 GI50) came out at 2.39 µM; with A549, 4.4 µM.

For `CCC(c1nc2cc(Cl)ccc2c(=O)n1OCc1ccccc1)N(CCCN)C(=O)c1ccc(C)cc1` (stereo not drawn) [Compound 32, N-(3-Aminopropyl)-N-{1-[3-(benzyloxy)-7-chloro-4-oxo-3,4-dihydroquinazolin-2-yl]propyl}-4-methylbenzamide], it took 1.39 µM to reach half-maximal inhibition at HsEg5 (IC50). In addition, the GI50 with NCI-H460 (read-out: MTS NCI H460 GI50) was found to be 0.956 µM; in the assay on A549 it was 1.87 µM.

On HsEg5, `CCC(c1nc2cc(Cl)ccc2c(=O)n1Nc1ccccc1)N(CCCN)C(=O)c1ccc(F)c(F)c1` (stereo not drawn) [Compound 9, N-(3-Aminopropyl)-N-[1-(3-anilino-7-chloro-4-oxo-3,4-dihydroquinazolin-2-yl)propyl]-3,4-difluorobenzamide] registered an IC50 of 1.16 µM. In addition, the GI50 was 2.39 µM in the assay with NCI-H460 (setting [1]) and 3.57 µM in the assay on A549 (A549, 72 h).

In the case of `NCCCN(C(=O)c1ccc(F)cc1)C(Cc1cccs1)c1nc2cc(Cl)ccc2c(=O)n1Nc1ccccc1` (stereo not drawn) [Compound 51, N-(3-Aminopropyl)-N-[1-(3-anilino-7-chloro-4-oxo-3,4-dihydroquinazolin-2-yl)-2-(2-thienyl)ethyl]-4-fluorobenzamide], at HsEg5, the 50% inhibitory concentration (IC50) turned out to be 2.8 µM. Further, the results for the GI50 in the assay with NCI-H460 (read-out: MTS NCI H460 GI50) and with A549 were 5.38 µM and 4.45 µM, respectively.

On HsEg5, `CCC(c1nc2cc(Cl)ccc2c(=O)n1Nc1ccccc1)N(CCCN)C(=O)c1cccc(Br)c1` (stereo not drawn) [Compound 14, N-(3-Aminopropyl)-N-[1-(3-anilino-7-chloro-4-oxo-3,4-dihydroquinazolin-2-yl)propyl]-3-bromobenzamide] showed an IC50 of 1 µM. The GI50 with NCI-H460 (read-out: MTS NCI H460 GI50) is 3.25 µM; with A549, 3.44 µM.

On HsEg5, `CC(C)C(c1nc2cc(Cl)ccc2c(=O)n1Nc1ccccc1)N(CCCN)C(=O)c1cccc(F)c1F` (stereo not drawn) [Compound 42, N-(3-Aminopropyl)-N-[1-(3-anilino-7-chloro-4-oxo-3,4-dihydroquinazolin-2-yl)-2-methylpropyl]-2,3-difluorobenzamide] showed an IC50 of 0.476 µM. Further, the GI50 with NCI-H460 (read-out: MTS NCI H460 GI50) was 2.08 µM; with A549 it was 4.28 µM.

With `CCC(c1nc2cc(Cl)ccc2c(=O)n1Nc1ccccc1)N(CCN)C(=O)c1ccc(C)c(F)c1F` (stereo not drawn) [Compound 65, N-(2-Aminoethyl)-N-[1-(3-anilino-7-chloro-4-oxo-3,4-dihydroquinazolin-2-yl)propyl]-2,3-difluoro-4-methylbenzamide], the IC50 against HsEg5 came to 4.08 µM. The GI50 in the assay on NCI-H460 (read-out: MTS NCI H460 GI50) is 11.4 µM; in the assay with A549 it was 12.4 µM.

`CCC(c1nc2cc(Cl)ccc2c(=O)n1Nc1cccc(F)c1)N(CCCN)C(=O)c1ccc(C)cc1` (stereo not drawn) [Compound 24, N-(3-Aminopropyl)-N-(1-{7-chloro-3-[(3-fluorophenyl)amino]-4-oxo-3,4-dihydroquinazolin-2-yl}propyl)-4-methylbenzamide] registered an IC50 against HsEg5 of 1.05 µM. In addition, the GI50 with NCI-H460 (read-out: MTS NCI H460 GI50) turned out to be 1.09 µM; in the assay on A549, 1.79 µM.

Take `NCCCN(C(=O)c1ccc(F)c(F)c1F)C(Cc1ccc(O)cc1)c1nc2cc(Cl)ccc2c(=O)n1Nc1ccccc1` (stereo not drawn) [Compound 55, N-(3-Aminopropyl)-N-[1-(3-anilino-7-chloro-4-oxo-3,4-dihydroquinazolin-2-yl)-2-(4-hydroxyphenyl)ethyl]-2,3,4-trifluorobenzamide]: the half-inhibitory concentration (IC50) on HsEg5 is 4.16 µM. Further, the GI50 came out at 16.1 µM in the assay on NCI-H460 (setting [1]) and 33.7 µM in the assay with A549 (A549, 72 h).

The compound `CC(C)C(c1nc2cc(Cl)ccc2c(=O)n1Nc1ccccc1)N(CCCN)C(=O)c1ccc(F)cc1` (stereo not drawn) [Compound 43, N-(3-Aminopropyl)-N-[1-(3-anilino-7-chloro-4-oxo-3,4-dihydroquinazolin-2-yl)-2-methylpropyl]-4-fluorobenzamide] had an IC50 on HsEg5 of 0.833 µM. For the same compound, the GI50 stood at 2.81 µM in the assay with NCI-H460 (read-out: MTS NCI H460 GI50) and 3.49 µM in the assay on A549.

`CCC(c1nc2cc(Cl)ccc2c(=O)n1Nc1ccccc1)N(CCN)C(=O)c1c(F)ccc(C)c1F` (stereo not drawn) [Compound 62, N-(2-Aminoethyl)-N-[1-(3-anilino-7-chloro-4-oxo-3,4-dihydroquinazolin-2-yl)propyl]-2,6-difluoro-3-methylbenzamide] returned an IC50 on HsEg5 of 3.74 µM. The GI50 in the assay with NCI-H460 (read-out: MTS NCI H460 GI50) amounted to 22.8 µM; with A549, 21.7 µM.

`CCC(c1nc2cc(Cl)ccc2c(=O)n1Nc1ccccc1)N(CCCN)C(=O)c1ccc(F)c(Cl)c1F` (stereo not drawn) [Compound 20, N-(3-Aminopropyl)-N-[1-(3-anilino-7-chloro-4-oxo-3,4-dihydroquinazolin-2-yl)propyl]-3-chloro-2,4-difluorobenzamide]: the midpoint of inhibition against HsEg5, the IC50, lay at 0.844 µM. For the same compound, the GI50 was determined as 1 µM with NCI-H460 (read-out: MTS NCI H460 GI50) and 1.8 µM in the assay on A549.

In the case of `CCC(c1nc2cc(Cl)ccc2c(=O)n1Nc1ccccc1)N(CCCN)C(=O)c1ccc(Cl)cc1` (stereo not drawn) [Compound 4, N-(3-Aminopropyl)-N-[1-(3-anilino-7-chloro-4-oxo-3,4-dihydroquinazolin-2-yl)propyl]-4-chlorobenzamide], on HsEg5, the half-inhibitory concentration (IC50) was 0.72 µM. In addition, the results for the concentration for 50% growth inhibition (GI50) with NCI-H460 (read-out: MTS NCI H460 GI50) and with A549 were 1.14 µM and 2.4 µM, respectively.

`CCC(c1nc2cc(Cl)ccc2c(=O)n1Nc1ccccc1)N(CCN)C(=O)c1ccc(C)cc1` (stereo not drawn) [Compound 61, N-(2-Aminoethyl)-N-[1-(3-anilino-7-chloro-4-oxo-3,4-dihydroquinazolin-2-yl)propyl]-4-methylbenzamide] registered a 50% inhibitory concentration (IC50) against HsEg5 of 3.89 µM. The GI50 worked out at 12.5 µM in the assay on NCI-H460 (read-out: MTS NCI H460 GI50) and 14.2 µM in the assay on A549.

Consider `CC(C)CC(c1nc2cc(Cl)ccc2c(=O)n1Nc1ccccc1)N(CCCN)C(=O)c1cc(Cl)cc(Cl)c1` (stereo not drawn) [Compound 36, N-(3-Aminopropyl)-N-[1-(3-anilino-7-chloro-4-oxo-3,4-dihydroquinazolin-2-yl)-3-methylbutyl]-3,5-dichlorobenzamide], for which half-maximal inhibition against HsEg5 (IC50) required 1.86 µM. Besides, the GI50 in the assay with NCI-H460 (read-out: MTS NCI H460 GI50) was found to be 3.77 µM; in the assay with A549, 4.37 µM.

With `CCC(c1nc2cc(Cl)ccc2c(=O)n1Nc1cc(F)ccc1F)N(CCCN)C(=O)c1ccc(C)cc1` (stereo not drawn) [Compound 26, N-(3-Aminopropyl)-N-(1-{7-chloro-3-[(2,5-difluorophenyl)amino]-4-oxo-3,4-dihydroquinazolin-2-yl}propyl)-4-methylbenzamide], inhibition against HsEg5 was half-maximal at 0.944 µM (IC50). Moreover, the GI50 in the assay with NCI-H460 (read-out: MTS NCI H460 GI50) stood at 0.889 µM; in the assay on A549, 1.25 µM.

On to `CCC(c1nc2cc(Cl)ccc2c(=O)n1Nc1ccccc1)N(CCCN)C(=O)c1ccc(F)cc1` (stereo not drawn) [Compound 8, N-(3-Aminopropyl)-N-[1-(3-anilino-7-chloro-4-oxo-3,4-dihydroquinazolin-2-yl)propyl]-4-fluorobenzamide], for which the IC50 on HsEg5 is 2.13 µM. Further, the GI50 with NCI-H460 (setting [1]) worked out at 2.83 µM; in the assay on A549 (A549, 72 h), 4.75 µM.

At HsEg5, `CC(C)CC(c1nc2cc(Cl)ccc2c(=O)n1Nc1ccccc1)N(CCCN)C(=O)c1ccc(F)c(Cl)c1` (stereo not drawn) [Compound 37, N-(3-Aminopropyl)-N-[1-(3-anilino-7-chloro-4-oxo-3,4-dihydroquinazolin-2-yl)-3-methylbutyl]-3-chloro-4-fluorobenzamide] yielded a concentration for half-maximal inhibition (IC50) of 1.66 µM. Further, the GI50 in the assay on NCI-H460 (setting [1]) worked out at 4.49 µM; with A549 (A549, 72 h) it was 5.02 µM.
